Patent publication EP1038532A1, “IMMUNOMODULATOR AND PHARMACEUTICAL COMPOSITIONS WITH ANTITUMOR PROPERTIES, AND A FOOD ADDITIVE” (Kaljuzhin, Oleg Vitallievich, priority 1997, dated 1998)

Experiments:
[1] = cholesterol/phosphatidylcholine model lipid membrane
TNF = TNF production by peritoneal macrophages, read out by lysis of L929 cells; assay type: cell-based, C57BL/6 mouse; conditions: control 7±6
Excerpt: (§1) Each value in the table is the mean ± S.D. of three independent experiments.

lymphoma EL-4 = assay: Antitumor activity in the mouse lymphoma EL-4 model; assay type: in vivo, C57BL/6 mice; conditions: for Inhibition of tumor growth: day 21
Method: (§2) Experimental procedures. Briefly, suspension of lymphoma EL-4 or melanoma B16 cells (10^6 cells) was injected subcutaneously into the footpad of C57BL/6 mice. Then mice underwent course of C7H15MDP treatment. Solution of the preparation in phosphate buffer saline (PBS) was administered i.v. or p.o. Single dosage for p.o. administration was of 1 mg/kg in weight, and of 0.5 mg/kg in weight when administered i.v. The preparation was administered twice a week during 3 weeks, beginning immediately after implantation of tumor cells. Besides, some tumor-bearing mice were treated with the preparation encapsulated in liposomes consisting of phosphatidylcholine:phosphatudylserine mixture (7:3).
(§3) Liposomal C7H15MDP in dose of 0.25 mg/kg was administered i.v. by the same schedule that was used with unencapsulated preparation.
(§4) Control mice were treated with PBS without active compound.
(§5) Antitumor effect was estimated using the following criteria: (1) prolongation of life-span, (2) inhibition of tumor growth.

[2] = test system: lymphocytes in a mixed lymphocyte culture (MLC); assay: Proliferation of lymphocytes in a mixed lymphocyte culture (MLC); assay type: cell-based; conditions: mean ± S.D. of six experiments, control 11.9±0.9
Excerpt: Each value in the table is the mean index of proliferation stimulation of lymphocytes in MLC ± S.D. of six independent experiments.

[3] = Distribution of 14C-labelled preparations in the water/chloroform model membrane; assay type: physicochemical
Excerpt: Marked differences in distribution of 14C-labelled preparations in the phases of this model "membrane" have been found. 64% of C7H15MDP was included in the water phase, and 36% of the preparation in the organic phase. At the same time, the water phase included only 28% of its lipophilic homologue, and the organic phase 72%.

IL-1 = IL-1 production by peritoneal macrophages, read out by thymocyte proliferation; assay type: cell-based, C57BL/6 mouse; conditions: control 1.3±0.4
Excerpt: as §1

melanoma B16 = assay: Antitumor activity in the mouse melanoma B16 model; assay type: in vivo, C57BL/6 mice; conditions: for Inhibition of tumor growth: day 21
Method: as §2, §3, §4, §5

mouse splenocytes = assay: LPS-induced proliferation of mouse splenocytes; assay type: cell-based; conditions: LPS stimulation 1 µg/ml, mean ± S.D. of three experiments, control 3.4±0.2
Method: Each value in the table is the index of proliferation of lymphocytes in response to stimulation of 1 µg/ml under the influence of MDP derivatives (arithmetical mean ± S.D. of three independent experiments).

[4] = test system: lymphoma EL-4 or melanoma B16; assay: Further antitumor trials in tumor-bearing mice (tumor type not specified); assay type: in vivo, C57BL/6 mice; conditions: treatment begun 1 week before tumor implantation
Method: as §2, with “Then mice underwent course of C7H15MDP treatment.” left out, “The preparation was administered twice a week during 3 weeks, beginning immediately after implantation of tumor cells.” left out
as §3
However, all methods of administration (p.o., i.v., liposomal i.v.) seem to be rational. Exact administration method is to be defined individually taking into account localization and type of tumor and other factors.

[5] = test system: human erythroleukemia K562 cells
[6] = i.v., 0.5 mg/kg twice a week during 3 weeks
[7] = p.o., 1 mg/kg twice a week during 3 weeks

time at which the preparation appeared in the second water phase [1] [h] | share of preparation included in the organic phase [3] [%] | share of preparation included in the water phase [3] [%] | Structure (SMILES) | Cytosis of L929 cells by samples of TNF (TNF; 5 µM) [%] | Cytosis of L929 cells by samples of TNF (TNF; 10 µM) [%] | Cytosis of L929 cells by samples of TNF (TNF; 20 µM) [%] | mean index of proliferation stimulation of lymphocytes in MLC ([2]; 5 µM) | mean index of proliferation stimulation of lymphocytes in MLC ([2]; 10 µM) | mean index of proliferation stimulation of lymphocytes in MLC ([2]; 20 µM) | Proliferation of tymocytes cultured with samples of IL-1 (index of proliferation) (IL-1; 5 µM) | Proliferation of tymocytes cultured with samples of IL-1 (index of proliferation) (IL-1; 10 µM) | Proliferation of tymocytes cultured with samples of IL-1 (index of proliferation) (IL-1; 20 µM) | index of proliferation of lymphocytes (mouse splenocytes; 5 µM) | index of proliferation of lymphocytes (mouse splenocytes; 10 µM) | index of proliferation of lymphocytes (mouse splenocytes; 20 µM) | also measured
24 | 36 | 64 | CCCCCCCO[C@@H]1O[C@H](CO)[C@@H](O)[C@H](O[C@H](C)C(=O)N[C@@H](C)C(=O)N[C@H](CCC(=O)O)C(N)=O)[C@H]1NC(C)=O [C7H15MDP, β-heptylglycoside-MDP] | 41±2 | 57±8 | 62±5 | 14.5±0.9 | 16.4±0.6 | 15.9±1.4 | 3.8±0.2 | 3.9±0.2 | 4.8±0.2 | 4.4±0.3 | 4.6±0.3 | 4.4±0.3 | time to reach a state of equilibrium between concentrations in water phases from both sides of the model membrane ([1]; first to reach equilibrium): 72 h; Prolongation of life-span (lymphoma EL-4; [6]): 62%; Mean life-span (lymphoma EL-4; i.v., 0.5 mg/kg twice a week during 3 weeks, control (PBS i.v.) 39±4): 63 ± 5 days; Tumor node volume at the day 21 after tumor inoculation (lymphoma EL-4; i.v., 0.5 mg/kg, control (PBS i.v.) 789±64): 463±52 mm^3; Inhibition of tumor growth (lymphoma EL-4; i.v., 0.5 mg/kg): 41%; Prolongation of life-span (lymphoma EL-4; [7]): 19%; Mean life-span (lymphoma EL-4; p.o., 1 mg/kg twice a week during 3 weeks, control (PBS p.o.) 42±6): 50 ± 7 days; Tumor node volume at the day 21 after tumor inoculation (lymphoma EL-4; p.o., 1 mg/kg, control (PBS p.o.) 842±78): 650±73 mm^3; Inhibition of tumor growth (lymphoma EL-4; p.o., 1 mg/kg): 23%; Prolongation of life-span (melanoma B16; [6]): 101%; Mean life-span (melanoma B16; i.v., 0.5 mg/kg twice a week during 3 weeks, control (PBS i.v.) 36±3): 74 ± 9 days; Tumor node volume at the day 21 after tumor inoculation (melanoma B16; i.v., 0.5 mg/kg, control (PBS i.v.) 736±51): 494±49 mm^3; Inhibition of tumor growth (melanoma B16; i.v., 0.5 mg/kg): 33%; Prolongation of life-span (melanoma B16; [7]): 70%; Mean life-span (melanoma B16; p.o., 1 mg/kg twice a week during 3 weeks, control (PBS p.o.) 30±4): 51 ± 5 days; Tumor node volume at the day 21 after tumor inoculation (melanoma B16; p.o., 1 mg/kg, control (PBS p.o.) 765±69): 571±65 mm^3; Inhibition of tumor growth (melanoma B16; p.o., 1 mg/kg): 25%; tumor regression [4]: complete regression of tumor was observed in several cases
1 | 72 | 28 | CCCCCCCCCCCCCCCCO[C@@H]1O[C@H](CO)[C@@H](O)[C@H](O[C@H](C)C(=O)N[C@@H](C)C(=O)N[C@H](CCC(=O)O)C(N)=O)[C@H]1NC(C)=O [C16H33MDP, β-hexadecylglycoside-MDP] | 36±15 | 40±16 | 47±10 | 9.5±1.2 | 7.7±0.4 | 5.9±0.8 | 3.8±0.1 | 3.9±0.4 | 3.9±0.1 | 3.0±0.1 | 2.6±0.3 | 3.0±1.0 | time at which concentration in the second water phase became significant [1]: 6 h; binding to the cells, more intensive than amphiphilic homologue [5]: 50%; time at which cell-associated radioactivity entered the plateau stage [5]: 2 h
